Columns and labels:
[1] = biological target: N288D mutant of the cytosolic PAS domain (PASc) of Geobacillus thermodenitrificans CitA (Geobacillus thermodenitrificans); assay: SEC; size exclusion column, down to a concentration of 1 μM (Supplementary Fig. 8)
Gt CitA PASp domain (WT) = biological target: T1, Gt CitA PASp domain (WT) (Geobacillus thermodenitrificans, UniProt A4IPE6); assay: X-ray crystallography, molecular replacement; format: binding; details: 1 mM sodium citrate added; crystallised from 1 M tri-sodium citrate, 0.1 M imidazole pH 9.0
T1 construct: gene GTNG_1840; periplasmic (extracytoplasmic) PAS/PDC sensor domain; E. coli BL21(DE3); N-terminal His-tag removed with TEV protease
T1 sequence (A4IPE6 entry or part of it): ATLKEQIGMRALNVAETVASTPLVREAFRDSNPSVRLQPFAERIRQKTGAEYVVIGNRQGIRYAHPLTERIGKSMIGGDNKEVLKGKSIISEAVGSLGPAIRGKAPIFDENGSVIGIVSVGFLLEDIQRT

full length Gt CitA = biological target: T2, full length Gt CitA (Geobacillus thermodenitrificans, UniProt A4IPE6, C12A/R93A/N308C, form not given); assay: […] NMR ATP hydrolysis assay in DMPC liposomes; format: biochemical; details: 5 mM sodium citrate; 6 mM ATP, 10 mM MgCl2, pH 6.5, 37 C; untagged and CH2COCF3-tagged at N308C; activator
T2 construct: gene GTNG_1840; full length; vector pET16b, Ni-NTA purified, reconstituted in DMPC liposomes (C12A/R93A/N308C); pMW1652 in E. coli IMW549 for reporter assay
T2 sequence (A4IPE6 entry or part of it C12A/R93A/N308C, form open): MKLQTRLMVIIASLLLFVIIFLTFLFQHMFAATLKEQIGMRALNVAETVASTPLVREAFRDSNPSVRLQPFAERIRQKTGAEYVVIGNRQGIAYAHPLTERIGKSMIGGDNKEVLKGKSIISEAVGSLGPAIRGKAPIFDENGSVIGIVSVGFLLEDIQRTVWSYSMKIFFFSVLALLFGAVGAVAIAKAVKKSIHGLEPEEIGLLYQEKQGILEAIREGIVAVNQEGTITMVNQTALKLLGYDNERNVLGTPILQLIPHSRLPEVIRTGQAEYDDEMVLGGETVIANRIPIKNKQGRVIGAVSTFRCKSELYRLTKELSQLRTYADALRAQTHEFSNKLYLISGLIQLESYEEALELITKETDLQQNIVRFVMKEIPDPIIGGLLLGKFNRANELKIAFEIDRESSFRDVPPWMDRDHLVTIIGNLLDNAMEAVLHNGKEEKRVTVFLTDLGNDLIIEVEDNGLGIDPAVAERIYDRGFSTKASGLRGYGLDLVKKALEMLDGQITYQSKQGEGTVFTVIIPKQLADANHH

[2] = biological target: T3, CitApc (C12A/R93A CitA1-309) (Geobacillus thermodenitrificans, UniProt A4IPE6, C12A/R93A); assay: 1H-detected MAS solid-state NMR chemical shifts; format: binding; details: 5 mM sodium citrate, 20 mM sodium phosphate pH 6.5; DMPC/DMPA liposomes; 293 K
T3 construct: gene GTNG_1840; residues 1-309 (PASp, TM helices, PASc; no kinase core); E. coli C43(DE3), Ni-NTA purified; reconstituted in DMPC/DMPA liposomes; dimer
T3 sequence (A4IPE6 entry or part of it C12A/R93A): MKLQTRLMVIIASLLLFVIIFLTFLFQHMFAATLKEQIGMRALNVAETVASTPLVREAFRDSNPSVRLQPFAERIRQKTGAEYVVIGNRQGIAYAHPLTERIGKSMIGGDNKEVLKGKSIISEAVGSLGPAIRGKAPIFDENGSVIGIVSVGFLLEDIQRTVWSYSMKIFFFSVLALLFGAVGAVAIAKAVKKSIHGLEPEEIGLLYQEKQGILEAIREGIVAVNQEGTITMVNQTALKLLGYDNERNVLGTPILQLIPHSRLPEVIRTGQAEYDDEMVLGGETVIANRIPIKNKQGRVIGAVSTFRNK

[3] = biological target: T4, CitApc (C12A/R93A CitA1-309) (Geobacillus thermodenitrificans, UniProt A4IPE6, C12A/R93A/N308C); assay: […] CODEX with DNP, inter-dimer distance change; format: binding; details: CH2COCF3-tagged at N308C; liposomes; 90 K
T4 construct: gene GTNG_1840; residues 1-309 (PASp, TM helices, PASc; no kinase core); E. coli C43(DE3), Ni-NTA purified; reconstituted in DMPC/DMPA liposomes; dimer
T4 sequence (A4IPE6 entry or part of it C12A/R93A/N308C): as the sequence (A4IPE6 entry or part of it C12A/R93A) above, with N308C counted along it

[4] = biological target: wild-type cytosolic PAS domain (PASc) of Geobacillus thermodenitrificans CitA (Geobacillus thermodenitrificans); assay: SEC; size exclusion column, down to a concentration of 1 μM (Supplementary Fig. 8)

N288D mutant of the cytosolic PAS domain (PASc) of Geobacillus thermodenitrificans CitA (domain or fragment)
stoichiometry N [1]: 2

O=C(O)CC(O)(CC(=O)O)C(=O)O [citrate]
X-ray crystallography, molecular replacement (Gt CitA PASp domain (WT)): Superposition of the citrate-bound Gt PASp domain structure (PDB: 8BGB
31P NMR ATP hydrolysis assay in DMPC liposomes (full length Gt CitA): Upon citrate binding, a threefold increase in CitA’s ATP hydrolysis rate was observed
1H-detected MAS solid-state NMR chemical shifts [2]: also indicate changes in secondary structure upon addition of citrate
19F CODEX with DNP, inter-dimer distance change [3]: A decay in the CODEX signal to half of the reference signal was observed when citrate was bound

wild-type cytosolic PAS domain (PASc) of Geobacillus thermodenitrificans CitA (domain or fragment)
stoichiometry N [4]: 2

Reference: article PMC11754779, “Mechanism of sensor kinase CitA transmembrane signaling” (Nature Communications, 2025)
